Assay results reported in patent publication US20230331675A1, “AROMATIC ETHYLENE COMPOUND AND PREPARATION METHOD THEREFOR, AND INTERMEDIATE, PHARMACEUTICAL COMPOSITION, AND APPLICATION THEREOF” (GUANGZHOU MAXINOVEL PHARMACEUTICALS CO., LTD., priority 2020, published 2023).

biological target: PD-1/PD-L1 (Homo sapiens (Human), UniProt Q9NZQ7); experiment: Homogeneous time-resolved fluorescence (HTRF) binding assay; conditions: CisBio kit, read-out: IC50 of compounds binding to PD-1/PD-L1
Excerpt: Effect embodiment 1: Homogenouse time-resolved fluorescence
Homogeneous time-resolved fluorescence (HTRF) binding assay was used to determine the binding ability of the compound of the present disclosure to PD-1/PD-L1.
The purchased kit (CisBio, #64CUS000C-1) contained reagents required for assays such as PD-1, PD-L1, anti-tag1-Eu, Anti-tag2-XL665, dilute buffer, and detection buffer.
1. The compound was formulated to 10 concentrations with a 3-fold gradient with 100% DMSO.
2. The DMSO solution of the compound was added to the dilute buffer, mixed thoroughly, then transferred to a 96-well plate.
3. PD-L1 was diluted with dilute buffer, then added to the above 96-well plate.
4. PD-1 was diluted with dilute buffer and added to the above 96-well plate, which was then incubated at room temperature for 30 minutes.
5. A portion of anti-tag1-Eu and a portion of anti-tag2-XL665 were added to the detection buffer, mixed thoroughly and transferred to the above 96-well plate.
6. The mixture in the above 96-well plate was incubated at room temperature for 1 to 24 hours.
7. HTRF values were read with Envision.

Sequence of PD-1/PD-L1 (Q9NZQ7 19-238): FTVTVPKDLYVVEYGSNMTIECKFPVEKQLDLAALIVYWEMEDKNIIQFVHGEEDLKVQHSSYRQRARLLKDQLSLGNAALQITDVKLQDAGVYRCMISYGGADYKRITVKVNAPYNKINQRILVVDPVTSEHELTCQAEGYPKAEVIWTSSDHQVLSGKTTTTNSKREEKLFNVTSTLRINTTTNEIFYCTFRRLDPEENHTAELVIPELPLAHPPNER

| Compound | IC50 |
| --- | --- |
| N#Cc1c(/C=C/c2cc(CO)c(CN3CCOC[C@H]3C(=O)O)cc2C(F)(F)F)cccc1-c1ccccc1 [Compound 21, (S,E)-4-(4-(2-(2-Cyano-[1,1′-biphenyl]-3-yl)vinyl)-2-hydroxymethyl-5-trifluoromethylbenzyl)morpholine-3-carboxylic acid] | 57.6 nM |
| COc1cc(/C=C(\Br)c2cccc(-c3ccccc3)c2C)c(C)cc1CN1CCCC[C@H]1C(=O)O [Compound 68, (S,Z)-1-(4-(2-Bromo-2-(2-methyl-[1,1′-biphenyl]-3-yl)vinyl)-2-methoxy-5-methylbenzyl)piperidine-2-carboxylic acid] | 169 nM |
| COCCOc1cc(/C=C/c2cccc(-c3ccccc3)c2C#N)c(C)cc1CN1CCNC[C@H]1C(=O)O [Compound 27, (S,E)-1-(4-(2-(2-Cyano-[1,1′-biphenyl]-3-yl)vinyl)-2-(2-methoxyethoxy)-5-methylbenzyl)piperazine-2-carboxylic acid] | 57.2 nM |
| COCCOc1cc(/C=C/c2cccc(-c3ccccc3)c2C#N)c(CN2CCCC[C@H]2C(=O)O)cc1Cl [Compound 33, (S,E)-1-(5-Chloro-2-(2-(2-cyano-[1,1′-biphenyl]-3-yl)vinyl)-4-(2-methoxyethoxy)benzyl)piperidine-2-carboxylic acid] | > 10000 nM |
| Cc1cc(CN2CCCC[C@H]2C(=O)O)c(OCCCCF)cc1/C=C/c1cccc(-c2ccccc2)c1C [Compound 83, (S,E)-1-(2-(4-Fluorobutoxy)-5-methyl-4-(2-(2-methyl-[1,1′-biphenyl]-3-yl)vinyl)benzyl)piperidine-2-carboxylic acid] | 6.99 nM |
| Cc1cc(CNCC(=O)O)c(OCCCCC#N)cc1/C=C/c1cccc(-c2ccccc2)c1C#N [Compound 16, (E)-(4-(2-(2-Cyano-[1,1′-biphenyl]-3-yl)vinyl)-2-(4-cyanobutoxy)-5-methylbenzyl)glycine] | 14.5 nM |
| Cc1cc(CN2CCCC[C@H]2C(=O)O)c(O)cc1/C=C/c1cccc(-c2ccccc2)c1C#N [Compound 31, (S,E)-1-(4-(2-(2-Cyano-[1,1′-biphenyl]-3-yl)vinyl)-2-hydroxy-5-methylbenzyl)piperidine-2-carboxylic acid] | 1160 nM |
| (S,E)-1-(2-Methoxy-4-(2-(2-methyl-d3)-[1,1′-biphenyl]-3-yl)vinyl)-5-trifluoromethylbenzyl)piperidine-2-carboxylic acid [Compound 51] | 2.2 nM |
| [2H]C([2H])([2H])Oc1cc(/C=C/c2cccc(-c3ccccc3)c2C#N)c(CN2CCCC[C@H]2C(=O)O)cc1Cl [Compound 52, (S,E)-1-(5-Chloro-2-(2-(2-cyano-[1,1′-biphenyl]-3-yl)vinyl)-4-(methoxy-d3)benzyl)piperidine-2-carboxylic acid] | > 10000 nM |
| Cc1c(/C=C/c2ccc(CN3CCCC[C@H]3C(=O)O)cc2Cl)cccc1-c1ccccc1 [Compound 3, (S,E)-1-(3-Chloro-4-(2-(2-methyl-[1,1′-biphenyl]-3-yl)vinyl)benzyl)piperidine-2-carboxylic acid] | 87.1 nM |
| Cc1cc(OCCCCC#N)c(CN2CCOC[C@H]2C(=O)O)cc1/C=C/c1cccc(-c2ccccc2)c1C#N [Compound 40, (S,E)-4-(5-(2-(2-Cyano-[1,1′-biphenyl]-3-yl)vinyl)-2-(4-cyanobutoxy)-4-methylbenzyl)morpholine-3-carboxylic acid] | 1440 nM |
| Cc1c(/C=C/c2cc(OCc3ccc(I)cc3)c(CN3CCCC[C@H]3C(=O)O)cc2C(F)(F)F)cccc1-c1ccccc1 [Compound 78] | 65.5 nM |
| Cc1cc(CN2CCNC[C@H]2C(=O)O)c(OCCCCC#N)cc1/C=C/c1cccc(-c2ccccc2)c1C#N [Compound 18, (S,E)-1-(4-(2-(2-Cyano-[1,1′-biphenyl]-3-yl)vinyl)-2-(4-cyanobutoxy)-5-methylbenzyl)piperazine-2-carboxylic acid] | 22.2 nM |

Continued, values first:

| IC50 | Compound |
| --- | --- |
| 26.3 nM | N#Cc1c(/C=C/c2ccc(CN3CCCC[C@H]3C(=O)O)cc2Cl)cccc1-c1ccccc1 [Compound 2, (S,E)-1-(3-Chloro-4-(2-(2-cyano-[1,1′-biphenyl]-3-yl)vinyl)benzyl)piperidine-2-carboxylic acid] |
| 7.09 nM | COc1cc(/C=C/c2cccc(-c3ccccc3)c2CF)c(C(F)(F)F)cc1CNCCO [Compound 74, (E)-2-((4-(2-(2-Fluoromethyl-[1,1′-biphenyl]-3-yl)vinyl)-2-methoxy-5-trifluoromethylbenzyl)amino)-1-ethanol] |
| 1.6 nM | COc1cc(/C=C/c2cccc(-c3ccccc3)c2C)c(C(F)(F)F)cc1CN1CCCC[C@H]1C(=O)O [Compound 6, (S,E)-1-(2-Methoxy-4-(2-(2-methyl-[1,1′-biphenyl]-3-yl)vinyl)-5-trifluoromethylbenzyl)piperidine-2-carboxylic acid] |
| 1.9 nM | COc1cc(/C=C/c2cccc(-c3ccccc3)c2C#N)c(C(F)(F)F)cc1CN1CCCC[C@H]1C(=O)O [Compound 7, (S,E)-1-(4-(2-(2-Cyano-[1,1′-biphenyl]-3-yl)vinyl)-2-methoxy-5-trifluoromethylbenzyl)piperidine-2-carboxylic acid] |
| 3.99 nM | COc1cc(/C=C/c2cccc(-c3ccccc3)c2CF)c(C(F)(F)F)cc1CN1CCCC[C@H]1C(=O)O [Compound 73, (S,E)-1-(4-(2-(2-Fluoromethyl-[1,1′-biphenyl]-3-yl)vinyl)-2-methoxy-5-trifluoromethylbenzyl)piperidine-2-carboxylic acid] |
| 41.7 nM | COc1cc(/C(Br)=C/c2cccc(-c3ccccc3)c2C)c(C(F)(F)F)cc1CNCCO [Compound 66, (Z)-2-((4-(1-Bromo-2-(2-methyl-[1,1′-biphenyl]-3-yl)vinyl)-2-methoxy-5-trifluoromethylbenzyl)amino)-1-ethanol] |
| 0.59 nM | [2H]C([2H])([2H])Oc1cc(/C=C/c2cccc(-c3ccccc3)c2C)c(C(F)(F)F)cc1CN1CCCC[C@H]1C(=O)O [Compound 60, (S,E)-1-(2-(Methoxy-d3)-4-(2-(2-methyl-[1,1′-biphenyl]-3-yl)vinyl)-5-trifluoromethylbenzyl)piperidine-2-carboxylic acid] |
| 11.4 nM | Cc1cc(/C=C/c2cccc(-c3ccccc3)c2C)c(Cl)cc1CN1CCOC[C@H]1C(=O)O [Compound 22, (S,E)-4-(5-Chloro-2-methyl-4-(2-(2-methyl-[1,1′-biphenyl]-3-yl)vinyl)benzyl)morpholine-3-carboxylic acid] |
| 4.7 nM | Cc1cc(CN2CCCC[C@H]2C(=O)O)c(OCCO)cc1/C=C/c1cccc(-c2ccccc2)c1C#N [Compound 26] |
| 12.8 nM | COc1cc(/C(Br)=C/c2cccc(-c3ccccc3)c2C)c(C(F)(F)F)cc1CN1CCCC[C@H]1C(=O)O [Compound 67, (S,Z)-1-(4-(1-Bromo-2-(2-methyl-[1,1′-biphenyl]-3-yl)vinyl)-2-methoxy-5-trifluoromethylbenzyl)piperidine-2-carboxylic acid] |
| 10.2 nM | N#Cc1c(/C=C/c2ccc(CN3CCCC[C@H]3C(=O)O)cc2C(F)(F)F)cccc1-c1ccccc1 [Compound 1, (S,E)-1-(4-(2-(2-Cyano-[1,1′-biphenyl]-3-yl)vinyl)-3-trifluoromethylbenzyl)piperidine-2-carboxylic acid] |
| 6.8 nM | COc1cc(/C=C/c2cccc(-c3ccccc3)c2C)c(Cl)cc1CN1CCCC[C@H]1C(=O)O [Compound 58, (S,E)-1-(5-Chloro-2-methoxy-4-(2-(2-methyl-[1,1′-biphenyl]-3-yl)vinyl)benzyl)piperidine-2-carboxylic acid] |
